Test results from ChEMBL document CHEMBL6182887, “Chemical modification of monensin as a source of potent antiplasmodial agents” (Bioorg Med Chem, 2025).

What was measured:
Plasmodium berghei [1] = experiment: (§1) Antiplasmodial activity against hepatic stage luciferase-expressing Plasmodium berghei sporozoites infected in human Huh-7 cells assessed as reduction in parasite burden preincubated for 1 hrs followed by infection and measured after 46 hrs by […]; assay type: functional, organism-based
[2] = Cytotoxicity against human Huh-7 cells assessed as reduction in cell viability incubated for 46 hrs by AlamarBlue dye based fluorescence analysis; assay type: toxicity
[3] = Selectivity index, ratio of CC50 for cytotoxicity against human Huh-7 cells to IC50 for antiplasmodial activity against hepatic stage luciferase-expressing Plasmodium berghei sporozoites infected in human Huh-7 cells; assay type: toxicity, cell-based; details: read-out: Ratio CC50/IC50
Plasmodium falciparum = experiment: Antiplasmodial activity against Plasmodium falciparum; assay type: functional, organism-based
Plasmodium berghei [4] = experiment: as §1, with “Potency index, ratio of monensin IC50 to test compound IC50 for antiplasmodial” for “Antiplasmodial”; assay type: functional; details: time 47 hrs

**Q.** With `CC[C@@]1([C@@H]2O[C@@H]([C@H]3O[C@@](O)(CO)[C@H](C)C[C@@H]3C)C[C@@H]2C)CC[C@H]([C@]2(C)CC[C@]3(C[C@H](O)[C@@H](C)[C@@H]([C@@H](C)[C@@H](OC)[C@H](C)C(=O)OCCCC[P+](c4ccccc4)(c4ccccc4)c4ccccc4)O3)O2)O1` as the compound, how does the IC50 (Plasmodium berghei [1]) read?
**A.** Its IC50 is 623 nM.

**Q.** What about the CC50 at 46 h [2] of the same compound?
**A.** The CC50 at 46 h was 5800 nM.

**Q.** What about the selectivity ratio [3] of the same compound?
**A.** The selectivity ratio was 9.3.

**Q.** Which IC50 (Plasmodium falciparum) does the source give for `CC[C@@]1([C@@H]2O[C@@H]([C@H]3O[C@@](O)(COS(=O)(=O)c4ccc(C)cc4)[C@H](C)C[C@@H]3C)C[C@@H]2C)CC[C@H]([C@]2(C)CC[C@]3(C[C@H](O)[C@@H](C)[C@@H]([C@@H](C)[C@@H](OC)[C@H](C)C(=O)O)O3)O2)O1` here?
**A.** Its IC50 is 1.52 nM.

**Q.** Which IC50 (Plasmodium berghei [1]) does the source give for `CC[C@@]1([C@@H]2O[C@@H]([C@H]3O[C@@](O)(COC(=O)Nc4ccccc4)[C@H](C)C[C@@H]3C)C[C@@H]2C)CC[C@H]([C@]2(C)CC[C@]3(C[C@H](O)[C@@H](C)[C@@H]([C@@H](C)[C@@H](OC)[C@H](C)C(=O)O)O3)O2)O1` here?
**A.** Its IC50 is 0.7 nM.

**Q.** And the “Ratio IC50” value (Plasmodium berghei [4])?
**A.** The value was roughly 8.

**Q.** And the CC50 at 46 h [2]?
**A.** Its CC50 at 46 h is 3100 nM.

**Q.** And the selectivity ratio [3]?
**A.** The selectivity ratio was 4430.

**Q.** With `CC[C@@]1([C@@H]2O[C@@H]([C@H]3O[C@@](O)(CNC(=O)c4ccccc4)[C@H](C)C[C@@H]3C)C[C@@H]2C)CC[C@H]([C@]2(C)CC[C@]3(C[C@H](O)[C@@H](C)[C@@H]([C@@H](C)[C@@H](OC)[C@H](C)C(=O)O)O3)O2)O1` as the compound, how does the IC50 (Plasmodium berghei [1]) read?
**A.** Its IC50 is 6.4 nM.

**Q.** What about the CC50 at 46 h [2] of the same compound?
**A.** The CC50 at 46 h was 8400 nM.

**Q.** And the selectivity ratio [3]?
**A.** Its selectivity ratio is 1310.

**Q.** For `CC[C@@]1([C@@H]2O[C@@H]([C@H]3O[C@@](O)(CNC(=O)Nc4ccccc4)[C@H](C)C[C@@H]3C)C[C@@H]2C)CC[C@H]([C@]2(C)CC[C@]3(C[C@H](O)[C@@H](C)[C@@H]([C@@H](C)[C@@H](OC)[C@H](C)C(=O)O)O3)O2)O1`, which IC50 (Plasmodium berghei [1]) is on record?
**A.** The IC50 was 2.9 nM.

**Q.** What about the CC50 at 46 h [2] of the same compound?
**A.** The CC50 at 46 h was 4200 nM.

**Q.** And the selectivity ratio [3]?
**A.** Its selectivity ratio is 1450.

**Q.** Which results are given for `CC[C@@]1([C@@H]2O[C@@H]([C@H]3O[C@@](O)(CNC(=O)CCC[P+](c4ccccc4)(c4ccccc4)c4ccccc4)[C@H](C)C[C@@H]3C)C[C@@H]2C)CC[C@H]([C@]2(C)CC[C@]3(C[C@H](O)[C@@H](C)[C@@H]([C@@H](C)[C@@H](OC)[C@H](C)C(=O)O)O3)O2)O1`?
**A.** IC50 (Plasmodium berghei [1]): 1490 nM; CC50 at 46 h [2]: 75300 nM; selectivity ratio [3]: 50.6

**Q.** With `CC[C@@]1([C@@H]2O[C@@H]([C@H]3O[C@@](O)(CO)[C@H](C)C[C@@H]3C)C[C@@H]2C)CC[C@H]([C@]2(C)CC[C@]3(C[C@H](O)[C@@H](C)[C@@H]([C@@H](C)[C@@H](OC)[C@H](C)C(=O)OCc4ccccc4)O3)O2)O1` as the compound, how does the IC50 (Plasmodium berghei [1]) read?
**A.** Its IC50 is 81.6 nM.

**Q.** What about the CC50 at 46 h [2] of the same compound?
**A.** The CC50 at 46 h was 31300 nM.

**Q.** What about the selectivity ratio [3] of the same compound?
**A.** The selectivity ratio was 384.

**Q.** Which IC50 (Plasmodium falciparum) does the source give for `CC[C@@]1([C@@H]2O[C@@H]([C@H]3O[C@@]4(COC(=O)O4)[C@H](C)C[C@@H]3C)C[C@@H]2C)CC[C@H]([C@]2(C)CC[C@]3(C[C@H](O)[C@@H](C)[C@@H]([C@@H](C)[C@@H](OC)[C@H](C)C(=O)O)O3)O2)O1` here?
**A.** Its IC50 is 1.08 nM.

**Q.** What does the source list for `CC[C@@]1([C@@H]2O[C@@H]([C@H]3O[C@@](O)(CO)[C@H](C)C[C@@H]3C)C[C@@H]2C)CC[C@H]([C@]2(C)CC[C@]3(C[C@H](O)[C@@H](C)[C@@H]([C@@H](C)[C@@H](OC)[C@H](C)C(=O)O)O3)O2)O1` [MONENSIN]?
**A.** IC50 (Plasmodium berghei [1]): 5.5 nM; IC50 (Plasmodium falciparum): 2.46 nM; CC50 at 46 h [2]: 17500 nM; selectivity ratio [3]: 3180

**Q.** For `COc1cc(NC(C)CCCN)c2ncccc2c1` (configuration not stated) [PRIMAQUINE], which CC50 at 46 h [2] is on record?
**A.** Its CC50 at 46 h is 139000 nM.

**Q.** And the selectivity ratio [3]?
**A.** The selectivity ratio was 16.4.
